# Test results taken from a melting point compilation (Tetko et al.; mined from patent text by program, amines drawn as free bases though some values may be those of a salt).
row,melting point,Structure (SMILES)
1,138 to 140 °C,CSc1ccc(C2=C(Br)C(=O)OC2)cc1
2,169 to 170 °C,CCCc1nc2c(C)cccc2n1Cc1ccc(-c2ccccc2-c2nnn[nH]2)nc1
3,47 to 49 °C,CCCCCCCCCCCCCCCCCCOc1cc(OC(=O)C(c2ccccc2)c2ccccc2)cc(C(=O)OCc2ccccc2)c1
4,146 to 147 °C,CCOC(=O)C(=O)Nc1ccc(Cc2ccc(NC(=O)C(=O)OCC)cc2)cc1
5,62 to 64 °C,Cc1ccc(OCC(O)CCCl)cc1 (centres undefined)
6,248 to 249 °C,O=C(NC(Cc1ccc(OCc2ccccc2)cc1)C(=O)O)c1cn2ccc(-c3ccc(Cl)cc3)cc2n1 (centres undefined)
7,110 to 112 °C,COc1ccc(C(c2ccc(OC)cc2)c2cnccc2C(=O)NC23CC4CC(CC2C4)C3)cc1
8,220 to 223 °C,CC1(C)Oc2cc3nonc3cc2C(N2CCC(=O)CC2=O)C1O (centres undefined)
9,232 to 234 °C,Cc1cc(Br)cnc1CCCCNc1ncc(Cc2ccc(O)cc2)c(=O)[nH]1
10,192 to 193 °C,Fc1cc(CC2(Cc3ccncc3)c3cccnc3-c3sccc32)ccn1 (centres undefined)
11,168 °C,CC(C)(C)c1ccc(CC2CCN(C(=O)C(=O)Nc3ccc4[nH]c(=O)oc4c3)CC2)cc1
12,120 to 121 °C,CCO[C@H]1Cc2ccccc2[C@H]1Nc1nc(CC)c(-c2ccc(OC)cc2OC)nc1CC
13,64 to 65 °C,O=C(c1c(F)cccc1F)C1CC1c1ccc(Br)cc1 (centres undefined)
14,87 to 91 °C,CCc1ccccc1CCC(=O)O
15,165 °C,O=[N+]([O-])c1ccc(NC(CO)(CO)CO)cc1
16,160 to 161 °C,COc1ccc(C2Sc3c(ccc4ccccc34)N(CCN(C)C)C(=O)C2O)cc1 (centres undefined)
17,126 to 127 °C,Nc1c(CCO)cccc1C(=O)c1ccc(Br)cc1
18,228 °C,CNc1ccn2c(C(=O)c3ccc([N+](=O)[O-])c(OC)c3)c(C)c(C(=O)OCc3ccccc3)c2c1
19,185 to 186 °C,FC(F)(F)COc1nc(-c2ccccc2)c2cc(Cl)ccc2n1
20,86 to 87 °C,CCCCN1CCC(CCC(=O)c2cc(Cl)c(N)nc2OC)CC1
21,175 °C,CC(C)c1cccc(S(=O)(=O)n2c(Cc3ccc(C(=O)O)cc3)cc3cc(C(F)(F)F)ccc32)c1
22,58.1 to 58.3 °C,CCOc1ccc(-c2nc(CCC(=O)OC)cs2)cc1OCC
23,137 to 138 °C,COc1cc(Br)cc([N+](=O)[O-])c1N
24,144 to 146 °C,CN1CC=C(C2=Cc3ccccc3Oc3ccc(Br)cc32)CC1
25,134 to 135 °C,Cc1ccc(Nc2ncccc2O)cc1

row,melting point,Structure (SMILES)
1,133 to 134 °C,OCc1cncn1C1CCCCC1
2,228 to 229 °C,CCNC(=O)c1ccc(N2CCN(Cc3cc4c(c(OC)c3)OC(C)C(=O)N4)CC2)c(F)c1 (centres undefined)
3,102 to 104 °C,N#CCc1cc(C(=O)c2ccc(Cl)cc2)cn1Cc1ccccc1
4,167 to 168 °C,Cc1c(C(=O)Nc2ccc(CN3CCC(N4CCOCC4)CC3)c(C#N)c2)cnn1-c1ccc(Cl)cc1
5,196 to 197 °C,CC(=O)OC1C(NC(=O)Cc2cccc3c2Cc2ccccc2-3)C(CO)OC1n1cnc2c(Cl)ncnc21 (centres undefined)
6,114 to 117 °C,Cc1c(CCC(=O)O)oc2cccc(O)c12
7,225 to 228 °C,O=C(O)c1cccc(Nc2nc(Oc3ccccc3)nc(Oc3cccc([N+](=O)[O-])c3)n2)c1
8,187 to 188 °C,N#Cc1cc(-c2ncccc2C(=O)O)ccc1OCCc1ccccc1Cl
9,146 to 148 °C,O=C(NCCc1ccc2c(c1)OCO2)C12CC3CC(CC(C3)C1)C2
10,178 to 180 °C,CNCc1ccc(-c2cc3c4c(ccn4C(=O)CNC3)c2)cc1
11,69 to 71 °C,CCOC(=O)C=C(Nc1cn[nH]c1)C(=O)OCC
12,114 to 115 °C,COc1nc(C)cnc1NS(=O)(=O)c1ccccc1-c1ccc(CC(C)C)c([N+](=O)[O-])c1
13,40 °C,O=C(C=Cc1ccccc1O)OCCc1ccccc1
14,> 250 °C,O=C(O)c1nc2c(=O)[nH]c3cc(C(F)(F)F)ccc3n2c1CBr
15,76 °C,CCOC(=O)C(=O)CC(=O)CC(=O)c1ccc(C)cc1
16,50 to 55 °C,CC#CCOc1ccc(S(=O)(=O)N(C)C(C(=O)NO)c2ccc(OCCCNC(=O)OCCCC)cc2)cc1 (centres undefined)
17,56 to 59 °C,C=CCc1ccc(C[C@H](NC(=O)OC(C)(C)C)C(=O)OC)cc1
18,130 to 132 °C,Cc1ccccc1S(=O)(=O)NC1CCc2sccc2C1 (centres undefined)
19,208 to 210 °C,O=C1Nc2ccc(Br)cc2C2(CCCCC2)O1
20,234 to 235 °C,O=C1C(=O)c2ccccc2C2=C1SCC1(CCN(C(=O)c3ccoc3)CC1)O2
21,113 to 114 °C,CCC(C)OC(=O)C(S)(C#N)C1=NC(C)Cc2cc(OC)c(OC)cc21 (centres undefined)
22,116 to 118 °C,O=C(O)C(Cc1ccccc1)Nc1cc(-c2ccc(Cc3ccccc3)cc2)ncn1 (centres undefined)
23,192 °C,COc1ccc2c3c([nH]c2c1[N+](=O)[O-])C(O)CC3 (centres undefined)
24,136 to 137 °C,CS(=O)(=O)NCCCCCCCCCCCn1c2c(c3ccccc3c1=O)C(=O)c1ccccc1-2
25,132 to 134 °C,CS(=O)(=O)c1c(C(N)=NO)nn(-c2c(Cl)cc(C(F)(F)F)cc2Cl)c1N

row,melting point,Structure (SMILES)
1,> 300 °C,Fc1ccc(Nc2ncnc3[nH]c(-c4ccc(CCl)cc4)cc23)cc1Cl
2,63 to 64.5 °C,CCOC(=O)c1c(N=[N+]=[N-])cc(C(F)(F)F)nc1C(F)(F)F
3,86 to 87 °C,COC(=O)[C@@H]1C[C@@H](OS(C)(=O)=O)CN1C(=O)OC(C)(C)C
4,181 to 185 °C,C(=Cc1nc2ccccc2s1)c1ccc2cc(N(c3ccccc3)c3ccccc3)ccc2c1
5,> 250 °C,CNCC1Cc2cc(-c3ccccc3)cc(-c3ccc(OC)cc3)c2O1 (centres undefined)
6,199 to 201 °C,CC(C)=CCN1CCN(CCC(=O)N2c3ccccc3C(=O)Nc3cccnc32)CC1
7,147 to 148 °C,CCC(C(=O)O)c1ccc2c(=O)c3ccccc3ccc2c1 (centres undefined)
8,195 to 198 °C,"O=C1Nc2ccccc2C(c2ccccc2)N1C1CCN(Cc2cccc(OC(F)(F)F)c2)CC1 (single isomer, unassigned; (+))"
9,80 to 83 °C,CCC1c2cc(Cl)ccc2-c2ccc(Cl)cc21
10,140 to 142 °C,CC(C)CN(CC(C)C)c1ccc(NC(=O)N(C[C@H]2CC[C@H](CN(C(=O)Nc3ccc(N(CC(C)C)CC(C)C)cc3)C3CCCCC3)CC2)C2CCCCC2)cc1
11,60 °C,COC(=O)N=C(N(C)C)N(C)C(=O)NC1CCCCC1
12,250 to 252 °C,COc1ccc2c(c1)S(=O)(=O)c1ccccc1C(=S)N2
13,151 to 152 °C,O=C1C(=Cc2ccc(Cl)c(Cl)c2)CSCC1=Cc1ccc(Cl)c(Cl)c1
14,240 to 242 °C,COc1cc2nc(N)nc(-c3ccc(I)cc3)c2cc1OC
15,115 to 117 °C,CC(=O)N1CCc2cc(CC(C)Br)cc(C#N)c21 (centres undefined)
16,110 to 111 °C,CCOC(=O)c1cnn2c(C=O)c(Cc3cccc(F)c3C)c(-c3ccccc3)c2c1Cl
17,254 to 256 °C,Cc1nn(-c2cc3nc(S)sc3cc2Br)c(=O)n1C(F)F
18,164 to 165 °C,CN(CCN1CCC(=C(c2ccc(F)cc2)c2ccc(F)cc2)CC1)c1nc(=O)cc[nH]1
19,200 to 201 °C,CN1CCN(Cc2nnc(S)n2Cc2cc(F)cc(F)c2)CC1
20,127 to 128 °C,Cc1ccccc1N1CCN(CCc2ccc(N3CCCNC3=O)cc2)CC1
21,73 to 75 °C,CCn1nc(C(F)(F)F)c(CS(=O)(=O)C2=NOC(C)(CCl)C2)c1F (centres undefined)
22,228 to 230 °C,COc1ccc(N2CCOCC2)c2sc(C(N)=O)nc12
23,164 to 165 °C,O=C(NCCCCCCCCNC(=O)c1ccc(OC(F)(F)F)cc1)c1ccc(OC(F)(F)F)cc1
24,165 to 167 °C,CC(C)(C)c1cc(C(c2ccccc2)c2cc(C(C)(C)C)cc(C(C)(C)C)c2O)c(O)c(C(C)(C)C)c1
25,174 °C,O=C1CCC(C(=O)c2ccc(Cl)cc2)N1 (centres undefined)

row,melting point,Structure (SMILES)
1,79 to 82 °C,CCOC(=O)c1c(N(CC)CC)c2ccc(C)nc2n(CC)c1=O
2,128 to 131 °C,CC(=O)CCCNC(=O)c1c2ccc(Cl)cc2c(-c2ccccc2)n1C
3,123 to 124 °C,CC(C)Cn1nc(-c2ccc(C(F)(F)F)cc2)cc(COS(C)(=O)=O)c1=O
4,150 to 151 °C,CNC(=O)C1CN=CNC1 (centres undefined)
5,185 to 188 °C,CCn1cc(C(=O)O)c(=O)c2cc(F)c(N3CCNC(Cn4cccc4)C3)cc21 (centres undefined)
6,188 to 189 °C,N#Cc1ccc(OCCCOc2ccc(-c3cc4cc(C#N)ccc4o3)cc2)cc1
7,118 to 119 °C,Nc1cccc(-c2nc3n(n2)CCc2ccccc2-3)c1
8,78 °C,CC(O)CSC(=S)Nc1ccccn1 (centres undefined)
9,114 to 115 °C,C(=CCN(Cc1ccccc1)Cc1ccccc1)CN(Cc1ccccc1)Cc1ccccc1
10,131 to 135 °C,OCc1ccc(OCc2ccc3ccccc3n2)cc1
11,44.5 to 47.5 °C,COc1ccc(CCl)c(F)c1OC
12,87 to 89 °C,ON=Cc1csc2ccccc12
13,197 to 199 °C,Nc1ccn(C2OC(CO)C(O)C2O)c(=O)c1Cl (centres undefined)
14,> 250 °C,Cc1ccnc2[nH]c(=O)c(CC(=O)O)cc12
15,137 to 139 °C,N#Cc1cccnc1N1CCN(CNC(=O)c2ccccc2Cl)CC1
16,213 °C,O=C(N[C@H]1CC[C@H](CCN2CCC(c3cccc4c3CCO4)CC2)CC1)c1ccc(F)cc1
17,275 to 280 °C,CCOC(=O)c1cnc2ccc(CC3CCOCC3)cc2c1O
18,297 °C,Cc1ccc(NC(=O)c2cnn3c(C(F)(F)F)cc(-c4ccc(C(F)(F)F)cc4)nc23)cc1S(N)(=O)=O
19,112 °C,Cc1cc(-n2ccnc2)c2cccc(OCc3c(Cl)ccc(S(=O)(=O)N4CCC[C@H]4C(=O)NCC4CCN(CCCCO)CC4)c3Cl)c2n1
20,> 225 °C,Nc1ccc2ncc(C(=O)NCc3ccc(Cl)cc3)c(O)c2c1
21,261 to 262 °C,O=C(O)c1ccc(NC(=O)c2ccc3c(c2)SCCCC3)cc1
22,90 to 92 °C,CC(C(=O)n1c(=O)oc2ccccc21)C(O)C(C)(C)C (centres undefined)

row,Structure (SMILES),melting point
1,CCOC(=O)C1(c2ccccc2)CCN(C/C=C/C(C#N)(c2ccccc2)c2ccccc2)CC1,100 to 102 °C
2,Nc1nc(Cl)cc(CCl)n1,126 to 128 °C
